Reference: ChEMBL document CHEMBL1144741, “Review of cytotoxic cephalostatins and ritterazines: isolation and synthesis” (2008)
One block for each molecule: values may come before it.

How the values were obtained:
Type in all cases: functional
[1] = Antitumor activity against human […] cells
P388 = assay: Antitumor activity against mouse P388 cells; details: for EC50: read-out: ED50 (the source's name)
SF-295 = assay: Antitumor activity against human SF295 cells
DMS-273 = assay: Antitumor activity against human DMS273 cells
RXF 393 = assay: Antitumor activity against human RXF393 cells
CCRF-CEM = assay: Antitumor activity against human CCRF-CEM cells
HOP-62 = assay: Antitumor activity against human HOP62 cells
HL-60 = assay: Antitumor activity against human HL60 cells
U-251 = assay: Antitumor activity against human U251 cells

Structure (SMILES): CO[C@H]1c2nc3c(nc2C[C@@H]2CC[C@H]4C5=CC[C@@H]6[C@@H](C)[C@]7(OC[C@]56C(=O)C[C@@H]4[C@]21C)OC(C)(C)C[C@H]7O)C[C@@]1(C)[C@@H](CC[C@H]2C4=C[C@@H]5O[C@]6(O[C@](C)(CO)C[C@H]6O)[C@@H](C)[C@]5(O)[C@@]4(C)[C@H](O)C[C@@H]21)C3 [CEPHALOSTATIN 11]
EC50 (P388): 2.7 nM

Structure (SMILES): C[C@@H]1[C@@]2(CC[C@@](C)(CO)O2)O[C@H]2C=C3[C@@H]4[C@@H](O)C[C@H]5Cc6nc7c(nc6C[C@]5(C)[C@H]4C[C@@H](O)[C@]3(C)[C@]21O)C[C@@H]1CC[C@H]2[C@H]3C[C@@H]4O[C@]5(CCC(C)(C)O5)[C@@H](C)[C@@H]4[C@@]3(C)[C@H](O)C[C@@H]2[C@@]1(C)C7 [RITTERAZINE C]
EC50 (P388): 102 nM

Structure (SMILES): C[C@@H]1[C@@]2(CC[C@](C)(O)CO2)O[C@H]2C=C3[C@@H]4CC[C@H]5Cc6nc7c(nc6C[C@]5(C)[C@H]4C[C@@H](O)[C@]3(C)[C@]21O)C[C@@H]1CC[C@H]2C3=C[C@@H]4O[C@]5(CC[C@@](C)(O)CO5)[C@@H](C)[C@@H]4[C@@]3(C)[C@H](O)C[C@@H]2[C@@]1(C)C7 [RITTERAZINE L]
EC50 (P388): 11.1 nM

Structure (SMILES): C[C@@H]1[C@@]2(CC[C@](C)(O)CO2)O[C@H]2C=C3[C@@H]4[C@@H](O)C[C@H]5Cc6nc7c(nc6C[C@]5(C)[C@H]4C[C@@H](O)[C@]3(C)[C@]21O)C[C@@H]1CC[C@@H]2[C@H](CC(=O)[C@]23C[C@@H]2O[C@]4(CCC(C)(C)O4)[C@@H](C)[C@@H]2[C@]3(C)O)[C@@]1(C)C7 [RITTERAZINE D]
EC50 (P388): 17.5 nM

Structure (SMILES): CO[C@H]1c2nc3c(nc2C[C@@H]2CC[C@H]4C5=C[C@@H]6O[C@]7(O[C@](C)(CO)C[C@H]7O)[C@@H](C)[C@]6(O)[C@@]5(C)[C@H](O)C[C@@H]4[C@]21C)C[C@@]1(C)[C@@H](CC[C@H]2C4=CC[C@@H]5[C@H](C)[C@@]6(OC[C@]45C(=O)C[C@@H]21)OC(C)(C)C[C@H]6O)C3 [CEPHALOSTATIN 18]
EC50 (P388): 4.6 nM

Structure (SMILES): C[C@@H]1[C@H]2C[C@@H]3O[C@@]34[C@]3(O)CC[C@H]5Cc6nc7c(nc6C[C@]5(C)C3=CC(=O)[C@]24CO[C@]12OC(C)(C)[C@@H](C)[C@H]2O)C[C@@H]1CC[C@H]2C3=C[C@@H]4O[C@]5(O[C@](C)(CO)C[C@H]5O)[C@@H](C)[C@]4(O)[C@@]3(C)[C@H](O)C[C@@H]2[C@@]1(C)C7 [CEPHALOSTATIN 15]
EC50 (P388): 26.2 nM

Structure (SMILES): C[C@@H]1[C@@]2(CC[C@](C)(O)CO2)O[C@H]2C=C3[C@@H]4[C@@H](O)C[C@H]5Cc6nc7c(nc6C[C@]5(C)[C@H]4C[C@@H](O)[C@]3(C)[C@]21O)C[C@@H]1CC[C@H]2[C@H]3C[C@@H]4O[C@@]5(CCC(C)(C)O5)C[C@@H]4[C@@]3(C)[C@H](O)C[C@@H]2[C@@]1(C)C7 [RITTERAZINE B]
EC50 (P388): 0.17 nM

Structure (SMILES): C[C@@H]1[C@@]2(CC[C@](C)(O)CO2)O[C@H]2C=C3[C@@H]4[C@@H](O)C[C@H]5Cc6nc7c(nc6C[C@]5(C)[C@H]4C[C@@H](O)[C@]3(C)[C@]21O)C[C@@H]1CC[C@H]2C3=C[C@@H]4O[C@]5(CCC(C)(C)O5)C[C@@H]4[C@@]3(C)[C@H](O)C[C@@H]2[C@@]1(C)C7 [RITTERAZINE G]
EC50 (P388): 0.81 nM

Structure (SMILES): C[C@@H]1[C@]2(O[C@H]3C=C4[C@@H]5CC[C@H]6Cc7nc8c(nc7C[C@]6(C)[C@H]5C[C@@H](O)[C@]4(C)[C@]31O)C[C@@H]1CC[C@H]3C4=C[C@@H]5O[C@]6(O[C@](C)(CO)C[C@H]6O)[C@@H](C)[C@]5(O)[C@@]4(C)[C@H](O)C[C@@H]3[C@@]1(C)[C@H]8O)O[C@](C)(CO)C[C@H]2O [CEPHALOSTATIN 13]
EC50 (P388): 47.9 nM

Now from value to molecule, other results behind:

GI50 (P388): < 0.1 nM
GI50 (CCRF-CEM): < 0.1 nM
GI50 (HL-60): < 0.1 nM
GI50 (U-251): < 0.1 nM
Structure (SMILES): C[C@@H]1[C@H]2CC=C3[C@@H]4CC[C@H]5Cc6nc7c(nc6C[C@]5(C)[C@H]4CC(=O)[C@@]32COC1(O)[C@H](O)CC(C)(C)O)C[C@@H]1CC[C@H]2C3=C[C@@H]4O[C@]5(O[C@](C)(CO)C[C@H]5O)[C@@H](C)[C@]4(O)[C@@]3(C)[C@H](O)C[C@@H]2[C@@]1(C)C7 (stereo partly drawn) [CEPHALOSTATIN 9]
GI50 [1]: < 0.1 nM
GI50 (SF-295): < 0.1 nM
GI50 (DMS-273): < 0.1 nM
GI50 (RXF 393): < 0.1 nM
GI50 (HOP-62): < 0.1 nM

GI50 (P388): < 0.1 nM
GI50 (CCRF-CEM): < 0.1 nM
GI50 (HL-60): < 0.1 nM
GI50 (U-251): < 0.1 nM
Structure (SMILES): C[C@@H]1C[C@]2(O[C@H]3C=C4[C@@H]5CC[C@H]6Cc7nc8c(nc7C[C@]6(C)[C@H]5C[C@@H](O)[C@]4(CO)[C@H]3[C@@H]2C)C[C@@H]2CC[C@H]3C4=C[C@@H]5O[C@]6(O[C@](C)(CO)C[C@H]6O)[C@@H](C)[C@]5(O)[C@@]4(C)[C@H](O)C[C@@H]3[C@@]2(C)C8)OC1(C)C [CEPHALOSTATIN 8]
GI50 [1]: < 0.1 nM
GI50 (SF-295): < 0.1 nM
GI50 (DMS-273): < 0.1 nM
GI50 (RXF 393): < 0.1 nM
GI50 (HOP-62): < 0.1 nM

GI50 (P388): < 0.1 nM
GI50 (CCRF-CEM): < 0.1 nM
GI50 (HL-60): < 0.1 nM
GI50 (U-251): < 0.1 nM
Structure (SMILES): C[C@@H]1[C@]2(O[C@H]3C=C4[C@@H]5CC[C@H]6Cc7nc8c(nc7C[C@]6(C)[C@H]5C[C@@H](O)[C@]4(C)[C@]31O)C[C@@H]1CC[C@H]3C4=C[C@@H]5O[C@]6(CC[C@](C)(O)CO6)C[C@]5(O)[C@@]4(C)[C@H](O)C[C@@H]3[C@@]1(C)C8)O[C@](C)(CO)C[C@H]2O [CEPHALOSTATIN 7]
GI50 [1]: < 0.1 nM
GI50 (SF-295): < 0.1 nM
GI50 (DMS-273): < 0.1 nM
GI50 (RXF 393): < 0.1 nM
GI50 (HOP-62): < 0.1 nM

EC50 (P388): 42.5 nM
Structure (SMILES): C[C@H]1[C@@H](O)C2(Oc3cc4c(c5c3[C@H](C[C@H]5O)[C@@H]2C)CC[C@H]2Cc3nc5c(nc3C[C@]42C)C[C@@H]2CC[C@H]3C4=C[C@@H]6O[C@@]7(C[C@]6(O)[C@@]4(C)[C@H](O)C[C@@H]3[C@@]2(C)C5)O[C@](C)(CO)C[C@H]7O)OC1(C)C (stereo partly drawn) [CEPHALOSTATIN 5]

EC50 (P388): 2380 nM
Structure (SMILES): C[C@H]1[C@H]2[C@H](C[C@]3(C(=O)C[C@@H]4[C@H]3CC[C@H]3Cc5nc6c(nc5C[C@@]34C)C[C@@H]3CC[C@@H]4[C@H](CC(=O)[C@]45C[C@@H]4O[C@@]7(CCC(C)(C)O7)[C@@H](C)[C@@H]4[C@]5(C)O)[C@@]3(C)C6)[C@@]2(C)O)O[C@]12CCC(C)(C)O2 [RITTERAZINE O]
